Data as given in ChEMBL document CHEMBL3885861, “Open TG-GATES”.

Species on record: Rattus norvegicus
Test: Open TG-GATES - Regimen: Single
Type: toxicity, organism-based, Sprague-Dawley
Parameters: regimen Single, gender Male, age 6 weeks
Conditions: in vivo, po, route gavage; for APTT / Bas / Eos / Fbg / Hb / Lym / MCH / MCHC / MCV / Mono / PT / Plat / RBC / Ret / WBC / Ht / Neu: tissue Blood; for KIDNEY_L / KIDNEY_R / KIDNEY_TOTAL: tissue Kidney; for LIVER: tissue Liver
[1] = 60 mg/kg, 24 h, tissue Plasma, dose level Low
[2] = 200 mg/kg, 3 h, dose level Middle
[3] = 200 mg/kg, 3 h, tissue Plasma, dose level Middle
[4] = 200 mg/kg, 6 h, dose level Middle
[5] = 200 mg/kg, 6 h, tissue Plasma, dose level Middle
[6] = 200 mg/kg, 9 h, dose level Middle
[7] = 200 mg/kg, 9 h, tissue Plasma, dose level Middle
[8] = 200 mg/kg, 24 h, dose level Middle
[9] = 200 mg/kg, 24 h, tissue Plasma, dose level Middle
[10] = 400 mg/kg, 3 h, dose level High
[11] = 400 mg/kg, 3 h, tissue Plasma, dose level High
[12] = 400 mg/kg, 6 h, dose level High
[13] = 400 mg/kg, 6 h, tissue Plasma, dose level High
[14] = 400 mg/kg, 9 h, dose level High
[15] = 400 mg/kg, 9 h, tissue Plasma, dose level High
[16] = 400 mg/kg, 24 h, dose level High
[17] = 400 mg/kg, 24 h, tissue Plasma, dose level High

Structure (SMILES): CC(C)Cc1ccc(C(C)C(=O)O)cc1 (stereo not drawn) [IBUPROFEN]
- TG [1]: 83.2 mg/dL
- TP [1]: 5.5 g/dL
- gamma-GTP [1]: 1.4 IU/L
- TERMINAL_BW [2]: 203.6 g
- APTT [2]: 21.7 s
- Bas [2]: 0%
- Eos [2]: 0.8%
- Fbg [2]: 294 mg/dL
- Hb [2]: 13 g/dL
- Lym [2]: 78.6%
- MCH [2]: 21.8 pg
- MCHC [2]: 33.8%
- MCV [2]: 64.6 fL
- Mono [2]: 1.6%
- PT [2]: 15.6 s
- Plat [2]: 130.9 x10_4/uL
- RBC [2]: 596.8 x10_4/ul
- Ret [2]: 8.5%
- WBC [2]: 68.9 x10_2/uL
- KIDNEY_L [2]: 0.9 g
- KIDNEY_R [2]: 0.9 g
- KIDNEY_TOTAL [2]: 1.8 g
- LIVER [2]: 9.4 g
- ALP [3]: 1619.6 IU/L
- ALT [3]: 50.2 IU/L
- AST [3]: 86.4 IU/L
- CRE [3]: 0.2 mg/dL
- DBIL [3]: 0.002 mg/dL
- GLC [3]: 180 mg/dL
- IP [3]: 8.8 mg/dL
- K [3]: 4 meq/L
- LDH [3]: 307.4 IU/L
- Na [3]: 141.6 meq/L
- PL [3]: 125.2 mg/dL
- RALB [3]: 3.1 g/dL
- TBIL [3]: 0.022 mg/dL
- TC [3]: 73 mg/dL
- TG [3]: 64.2 mg/dL
- TP [3]: 5.4 g/dL
- gamma-GTP [3]: 1 IU/L
- TERMINAL_BW [4]: 197.7 g
- Bas [4]: 0%
- Eos [4]: 1%
- Fbg [4]: 277 mg/dL
- Hb [4]: 13.4 g/dL
- Ht [4]: 39.7%
- Lym [4]: 74.2%
- MCHC [4]: 33.7%
- MCV [4]: 65.6 fL
- Mono [4]: 2.6%
- PT [4]: 15.5 s
- Plat [4]: 122.9 x10_4/uL
- RBC [4]: 605 x10_4/ul
- Ret [4]: 8.2%
- WBC [4]: 77.7 x10_2/uL
- KIDNEY_L [4]: 0.9 g
- KIDNEY_R [4]: 0.9 g
- KIDNEY_TOTAL [4]: 1.8 g
- LIVER [4]: 8.6 g
- ALP [5]: 1495.2 IU/L
- ALT [5]: 48.6 IU/L
- AST [5]: 83.4 IU/L
- CRE [5]: 0.2 mg/dL
- DBIL [5]: 0.002 mg/dL
- GLC [5]: 170.8 mg/dL
- IP [5]: 9.6 mg/dL
- K [5]: 4.3 meq/L
- LDH [5]: 244.8 IU/L
- Na [5]: 140.4 meq/L
- PL [5]: 110.6 mg/dL
- RALB [5]: 2.8 g/dL
- TBIL [5]: 0.022 mg/dL
- TC [5]: 63.8 mg/dL
- TG [5]: 57.2 mg/dL
- TP [5]: 5.2 g/dL
- gamma-GTP [5]: 1 IU/L
- TERMINAL_BW [6]: 200.1 g
- APTT [6]: 21.5 s
- Bas [6]: 0%
- Eos [6]: 0.4%
- Fbg [6]: 268.6 mg/dL
- Hb [6]: 13.2 g/dL
- Ht [6]: 39.7%
- Lym [6]: 60.8%
- MCHC [6]: 33.3%
- MCV [6]: 63.6 fL
- Mono [6]: 3%
- Neu [6]: 35%
- PT [6]: 15.8 s
- Plat [6]: 113 x10_4/uL
- RBC [6]: 624.6 x10_4/ul
- Ret [6]: 7.8%
- WBC [6]: 87.7 x10_2/uL
- KIDNEY_L [6]: 0.9 g
- KIDNEY_R [6]: 0.9 g
- KIDNEY_TOTAL [6]: 1.8 g
- LIVER [6]: 8.1 g
- ALP [7]: 1296.6 IU/L
- ALT [7]: 37.4 IU/L
- AST [7]: 69.2 IU/L
- CRE [7]: 0.2 mg/dL
- DBIL [7]: 0.004 mg/dL
- GLC [7]: 180.2 mg/dL
- K [7]: 4.3 meq/L
- LDH [7]: 226.2 IU/L
- Na [7]: 140.6 meq/L
- RALB [7]: 2.8 g/dL
- TBIL [7]: 0.018 mg/dL
- TC [7]: 60.6 mg/dL
- TG [7]: 50.4 mg/dL
- TP [7]: 5 g/dL
- gamma-GTP [7]: 1.2 IU/L
- TERMINAL_BW [8]: 212.3 g
- APTT [8]: 21.5 s
- Bas [8]: 0%
- Eos [8]: 1%
- Fbg [8]: 360 mg/dL
- Hb [8]: 12.9 g/dL
- Ht [8]: 37.8%
- Lym [8]: 66.4%
- MCH [8]: 21.7 pg
- MCHC [8]: 34.3%
- MCV [8]: 63.3 fL
- Mono [8]: 4.2%
- PT [8]: 16.2 s
- Plat [8]: 111.7 x10_4/uL
- RBC [8]: 596.8 x10_4/ul
- Ret [8]: 7.5%
- KIDNEY_L [8]: 0.9 g
- KIDNEY_R [8]: 1 g
- KIDNEY_TOTAL [8]: 1.9 g
- ALP [9]: 1263 IU/L
- ALT [9]: 41.4 IU/L
- AST [9]: 69.2 IU/L
- CRE [9]: 0.2 mg/dL
- Ca [9]: 10.4 mg/dL
- DBIL [9]: 0 mg/dL
- GLC [9]: 182.8 mg/dL
- IP [9]: 7.6 mg/dL
- K [9]: 4.3 meq/L
- LDH [9]: 210.6 IU/L
- Na [9]: 141.8 meq/L
- PL [9]: 145.2 mg/dL
- RALB [9]: 2.7 g/dL
- TBIL [9]: 0.002 mg/dL
- TC [9]: 77 mg/dL
- TG [9]: 141.2 mg/dL
- TP [9]: 5 g/dL
- gamma-GTP [9]: 1.4 IU/L
- TERMINAL_BW [10]: 201.6 g
- APTT [10]: 20.6 s
- Bas [10]: 0%
- Eos [10]: 0.8%
- Fbg [10]: 281.4 mg/dL
- Hb [10]: 13.2 g/dL
- Ht [10]: 39.2%
- Lym [10]: 77.2%
- MCH [10]: 21.6 pg
- MCHC [10]: 33.7%
- MCV [10]: 64.2 fL
- Mono [10]: 1.6%
- Neu [10]: 19.8%
- PT [10]: 15.7 s
- Plat [10]: 118.2 x10_4/uL
- RBC [10]: 610.8 x10_4/ul
- Ret [10]: 8.1%
- WBC [10]: 69.4 x10_2/uL
- KIDNEY_L [10]: 0.9 g
- KIDNEY_R [10]: 0.9 g
- KIDNEY_TOTAL [10]: 1.8 g
- LIVER [10]: 8.7 g
- ALP [11]: 1604.2 IU/L
- ALT [11]: 52.2 IU/L
- AST [11]: 80.4 IU/L
- CRE [11]: 0.2 mg/dL
- DBIL [11]: 0 mg/dL
- GLC [11]: 162 mg/dL
- IP [11]: 9.7 mg/dL
- K [11]: 4 meq/L
- LDH [11]: 264.8 IU/L
- Na [11]: 140.6 meq/L
- RALB [11]: 2.7 g/dL
- TBIL [11]: 0.026 mg/dL
- TC [11]: 69.8 mg/dL
- TG [11]: 37.8 mg/dL
- TP [11]: 5.3 g/dL
- gamma-GTP [11]: 1.4 IU/L
- TERMINAL_BW [12]: 200.3 g
- APTT [12]: 21 s
- Bas [12]: 0%
- Eos [12]: 1%
- Fbg [12]: 283.4 mg/dL
- Hb [12]: 13.2 g/dL
- Ht [12]: 39.3%
- Lym [12]: 72.2%
- MCH [12]: 21.5 pg
- MCHC [12]: 33.7%
- MCV [12]: 63.9 fL
- Mono [12]: 2.6%
- Neu [12]: 23.4%
- PT [12]: 15.5 s
- Plat [12]: 116.4 x10_4/uL
- RBC [12]: 614.8 x10_4/ul
- Ret [12]: 8.2%
- WBC [12]: 67.5 x10_2/uL
- KIDNEY_L [12]: 0.9 g
- KIDNEY_R [12]: 0.9 g
- KIDNEY_TOTAL [12]: 1.8 g
- LIVER [12]: 8.2 g
- ALP [13]: 1535.4 IU/L
- ALT [13]: 48.8 IU/L
- AST [13]: 76 IU/L
- CRE [13]: 0.2 mg/dL
- DBIL [13]: 0.006 mg/dL
- GLC [13]: 172.8 mg/dL
- IP [13]: 9.9 mg/dL
- K [13]: 4.2 meq/L
- LDH [13]: 246.4 IU/L
- Na [13]: 140.2 meq/L
- RALB [13]: 2.9 g/dL
- TBIL [13]: 0.016 mg/dL
- TC [13]: 62.6 mg/dL
- TG [13]: 51.8 mg/dL
- TP [13]: 5.3 g/dL
- gamma-GTP [13]: 1 IU/L
- TERMINAL_BW [14]: 204.9 g
- APTT [14]: 21.6 s
- Bas [14]: 0%
- Eos [14]: 0.6%
- Fbg [14]: 261.4 mg/dL
- Ht [14]: 39.8%
- Lym [14]: 63.4%
- MCH [14]: 21.3 pg
- MCHC [14]: 33.3%
- MCV [14]: 63.8 fL
- Mono [14]: 3%
- Neu [14]: 32.8%
- PT [14]: 15.6 s
- Plat [14]: 120.1 x10_4/uL
- RBC [14]: 624.4 x10_4/ul
- Ret [14]: 7.8%
- WBC [14]: 76.3 x10_2/uL
- KIDNEY_L [14]: 0.9 g
- KIDNEY_R [14]: 0.9 g
- KIDNEY_TOTAL [14]: 1.8 g
- LIVER [14]: 8.2 g
- ALP [15]: 1623.8 IU/L
- ALT [15]: 43.4 IU/L
- AST [15]: 73 IU/L
- CRE [15]: 0.2 mg/dL
- DBIL [15]: 0.006 mg/dL
- GLC [15]: 180.4 mg/dL
- IP [15]: 10.2 mg/dL
- K [15]: 4.1 meq/L
- LDH [15]: 257 IU/L
- Na [15]: 140.8 meq/L
- PL [15]: 97.4 mg/dL
- RALB [15]: 2.8 g/dL
- TBIL [15]: 0.016 mg/dL
- TC [15]: 53.6 mg/dL
- TG [15]: 46.4 mg/dL
- TP [15]: 5 g/dL
- gamma-GTP [15]: 1 IU/L
- TERMINAL_BW [16]: 209.2 g
- APTT [16]: 21.1 s
- Bas [16]: 0%
- Eos [16]: 0.6%
- Fbg [16]: 375.8 mg/dL
- Hb [16]: 13.1 g/dL
- Ht [16]: 38.2%
- Lym [16]: 57.2%
- MCHC [16]: 34.3%
- MCV [16]: 61.7 fL
- Mono [16]: 4.2%
- Neu [16]: 36.2%
- PT [16]: 16.1 s
- RBC [16]: 619.4 x10_4/ul
- Ret [16]: 6.8%
- KIDNEY_L [16]: 0.9 g
- KIDNEY_R [16]: 1 g
- KIDNEY_TOTAL [16]: 1.9 g
- LIVER [16]: 10.1 g
- ALP [17]: 1531.4 IU/L
- ALT [17]: 44 IU/L
- AST [17]: 72.6 IU/L
- CRE [17]: 0.2 mg/dL
- DBIL [17]: 0.004 mg/dL
- GLC [17]: 175.2 mg/dL
- IP [17]: 7.5 mg/dL
- K [17]: 4.3 meq/L
- LDH [17]: 212.4 IU/L
- Na [17]: 141 meq/L
- PL [17]: 129.4 mg/dL
- RALB [17]: 2.7 g/dL
- TBIL [17]: 0.002 mg/dL
- TG [17]: 104.2 mg/dL
- TP [17]: 4.9 g/dL
- gamma-GTP [17]: 1 IU/L
